Test results as given in patent publication US20230142274A1 (SIMCERE PHARMACEUTICAL CO., LTD., priority 2020, published 2023).

How the values were obtained:
Daudi cells = experiment: Inhibition of human Daudi lymphoma cell proliferation (Cell-Titer Glo); format: cell-based; conditions: Homo sapiens, 72 h, 3 days incubation, read-out: Anti-Proliferative Activity Against Daudi cells IC50
Outline: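 Daudi cells in RPMI 1640 with 10% FBS were seeded and grown 24 h, then exposed for 3 days (37 °C, 5% CO2) to 10-point 3-fold serial dilutions at 0.25% final DMSO. Viability was read by CellTiter-Glo ATP luminescence, and IC50 was fitted from % inhibition against top/bottom controls.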

WI-38 cells = experiment: Inhibition of human WI-38 embryonic lung cell proliferation (Cell-Titer Glo); format: cell-based; conditions: Homo sapiens, 72 h, 3 days incubation, read-out: Anti-Proliferative Activity Against WI-38 cells IC50
Description: Introduction of the experimental principle: After the RAD51 inhibitor to be tested was co-incubated with human embryonic lung cells for a period of time, the influence of the test compound on cell proliferation was measured by a method for counting cell proliferation based on the quantitative measurement of intracellular ATP content.
Materials and Cells: WI-38 cells were purchased from ATCC; fetal bovine serum, 1640 medium and penicillin-streptomycin were purchased from Gibco Inc. (U.S.), 96-well plates were purchased from Corning Inc. (U.S.), and Cell-Titer Glo reagent was purchased from Promega Corporation (U.S.).
Cell culture: WI-38 cells were cultured in an EMEM culture medium containing 10% fetal bovine serum and 1% penicillin-streptomycin at 37° C. in an atmosphere containing 5% CO2. Cells in logarithmic growth phase could be used for experiments.
Assay of cell proliferation and viability: Cell-Titer Glo reagent was used to measure the inhibitory activities of the compounds on the proliferation of WI-38 cell strain. The concentration of cells was adjusted, and the cells were seeded in a 96-well plate and cultured at 37° C. in an atmosphere containing 5% CO2 for 24 hours. The powder of the compound was dissolved in 100% DMSO to form a 10 mM solution. 10 μl of the solution of the compound was aspirated and transferred into a 96-well compound plate containing 20 μl of DMSO solution in each well for 3-fold dilution and was then formulated to 10 serial dilutions. Thereafter, 2 μl of the solution of the compound was aspirated from the corresponding well and added correspondingly into a 96-well intermediate compound dilution plate containing 78 μl of complete culture medium in each well. The resultant was mixed well, and the plate was centrifuged at 1000 rpm for 1 minute. Finally, 10 μl of the solution of the compound was aspirated from the corresponding well of the 96-well intermediate compound dilution plate, and transferred into the corresponding well of the cell culture plate containing 90 μl of complete culture medium. The final concentration of DMSO was 0.25%. After the addition of the compound, the cells were continued to be incubated for 3 days at 37° C. in an atmosphere containing 5% CO2. Cell-Titer Glo reagent was added to measure cell viability.
% Compound inhibition was calculated and IC50 of the compound was fitted;
% Compound inhibition=1−100%×(Signal−Bottom)/(Top−Bottom)

| SMILES | IC50 (Daudi cells) [nM] | IC50 (WI-38 cells) [nM] |
| --- | --- | --- |
| Cc1cc(Nc2ccc(-c3cnc([C@H]4CC[C@H](NC(=O)OC(C)C)CC4)s3)c(S(=O)(=O)NC(C)(C)C)c2)n[nH]1 [Example 28, isopropyl trans-(4-(5-(2-(N-(tert-butyl)sulfamoyl)-4-((5-methyl-1H-pyrazol-3-yl)amino)phenyl)thiazol-2-yl)cyclohexyl)carbamate] | 48 | 15000 |
| CC(C)OC(=O)N[C@H]1CC[C@H](c2ncc(-c3ccc(Nc4ccno4)cc3S(=O)(=O)NC(C)(C)C)s2)CC1 [Example 29, isopropyl trans-(4-(5-(2-(N-(tert-butyl)sulfamoyl)-4-(isoxazol-5-ylamino)phenyl)thiazol-2-yl)cyclohexyl)carbamate] | 340 | 18400 |
| CC(C)OC(=O)Nc1ccc(-c2cnc([C@H]3CC[C@H](NC(=O)OC(C)C)CC3)s2)c(S(=O)(=O)C(C)(C)C)c1 [Example 34, isopropyl trans-N-[3-tert-butylsulfonyl-4-[2-[4-(isopropoxycarbonylamino)cyclohexyl]thiazol-5-yl]phenyl]carbamate] | 700 | > 25000 |
| Cc1cc(Nc2ccc(-c3cnc([C@H]4CC[C@H](NC(=O)OC(C)C)CC4)s3)c(S(=O)(=O)C(C)C)c2)nn1C [Example 36, isopropyl trans-(4-(5-(4-((1,5-dimethyl-1H-pyrazol-3-yl)amino)-2-(isopropylsulfonyl)phenyl)thiazol-2-yl)cyclohexyl)carbamate] | 77 | 24600 |
| Cc1cc(Nc2ccc(-c3cnc([C@H]4CC[C@H](NC(=O)OC(C)C)CC4)s3)c(S(=O)(=O)C(C)C)c2)no1 [Example 37, isopropyl trans-(4-(5-(2-(isopropylsulfonyl)-4-((5-methylisoxazol-3-yl)amino)phenyl)thiazol-2-yl)cyclohexyl)carbamate] | 330 | > 25000 |
| CC(C)OC(=O)N[C@H]1CC[C@H](c2ncc(-c3ccc(Nc4cn(C)nn4)cc3S(=O)(=O)C(C)C)s2)CC1 [Example 39, isopropyl trans-(4-(5-(2-(isopropylsulfonyl)-4-((1-methyl-1H-1,2,3-triazol-4-yl)amino)phenyl)thiazol-2-yl)cyclohexyl)carbamate] | 230 | > 25000 |
| Cc1cc(Nc2ccc(-c3cnc([C@H]4CC[C@H](NC(=O)OC(C)C)CC4)s3)c(S(=O)(=O)C(C)C)c2)n[nH]1 [Example 40, isopropyl trans-(4-(5-(2-(isopropylsulfonyl)-4-((5-methyl-1H-pyrazol-3-yl)amino)phenyl)thiazol-2-yl)cyclohexyl)carbamate] | 51 | 22900 |
| CC(C)OC(=O)N[C@H]1CC[C@H](c2ncc(-c3ccc(Nc4cc(C5CC5)[nH]n4)cc3S(=O)(=O)C(C)C)s2)CC1 [Example 45, isopropyl trans-N-[4-[5-[4-[(5-cyclopropyl-1H-pyrazol-3-yl)amino]-2-isopropylsulfonyl-phenyl]thiazol-2-yl]cyclohexyl]carbamate] | 62 | > 25000 |
| CC(C)OC(=O)N[C@H]1CC[C@H](c2ncc(-c3ccc(Nc4cn(C)nn4)cc3P3(=O)CCCC3)s2)CC1 [Example 53, isopropyl trans-N-[4-[5-[4-[(1-methyltriazol-4-yl)amino]-2-(1-oxidophospholan-1-yl)phenyl]thiazol-2-yl]cyclohexyl]carbamate] | 100 | > 25000 |
| CC(C)OC(=O)N[C@H]1CC[C@H](c2ncc(-c3ccc(Nc4cc(C5CC5)[nH]n4)cc3S(=O)(=O)C3CC3)s2)CC1 [Example 62, isopropyl trans-N-[4-[5-[4-[(5-cyclopropyl-1H-pyrazol-3-yl)amino]-2-cyclopropylsulfonyl-phenyl]thiazol-2-yl]cyclohexyl]carbamate] | 10 | > 25000 |
| CC(C)OC(=O)N[C@H]1CC[C@H](c2ncc(-c3ccc(Nc4cnn(C)c4)cc3S(=N)(=O)C3CC3)s2)CC1 (stereo partly drawn) [Example 69, isopropyl trans-(4-(5-(2-(cyclopropanesulfonimidoyl)-4-((1-methyl-1H-pyrazol-4-yl)amino)phenyl]thiazol-2-yl)cyclohexyl)carbamate] | 30 | > 25000 |
| Cc1cc(Nc2ccc(-c3cnc([C@H]4CC[C@H](NC(=O)OC(C)C)CC4)s3)c(S(=O)(=O)C3CCC3)c2)n[nH]1 [Example 88, isopropyl trans-(4-(5-(2-(cyclobutylsulfonyl)-4-((5-methyl-1H-pyrazol-3-yl)amino)phenyl)thiazol-2-yl)cyclohexyl)carbamate] | 4 | > 25000 |
| Cc1cc(Nc2ccc(-c3cnc([C@H]4CC[C@H](NC(=O)OC(C)C)CC4)s3)c(S(=N)(=O)C3CCC3)c2)n[nH]1 (stereo partly drawn) [Example 101, isopropyl trans-(4-(5-(2-(cyclobutanesulfonimidoyl)-4-((5-methyl-1H-pyrazol-3-yl)amino)phenyl]thiazol-2-yl)cyclohexyl)carbamate] | 28 | > 25000 |
| CC(C)OC(=O)N[C@H]1CC[C@H](c2ncc(-c3ccc(Nc4cnn(CCF)c4)cc3S(=N)(=O)C3CCC3)s2)CC1 (stereo partly drawn) [Example 102] | 17 | > 25000 |
| CC(C)OC(=O)N[C@H]1CC[C@H](c2ncc(-c3ccc(Nc4cnn(CCF)c4)cc3P3(=O)CCC3)s2)CC1 [Example 104, isopropyl trans-(4-(5-(4-((1-(2-fluoroethyl)-1H-pyrazol-4-yl)amino)-2-(1-oxophosphetan-1-yl)phenyl)thiazol-2-yl)cyclohexyl)carbamate] | 23 | > 25000 |
| Cc1cc(Nc2ccc(-c3cnc([C@H]4CC[C@H](NC(=O)OC(C)C)CC4)s3)c(S(=O)(=O)C3CN(C)C3)c2)n[nH]1 [Example 114, isopropyl trans-(4-(5-(4-((5-methyl-1H-pyrazol-3-yl)amino)-2-((1-methylazetidin-3-yl)sulfonyl)phenyl)thiazol-2-yl)cyclohexyl)carbamate] | 14 | > 25000 |
| Cc1cc(Nc2ccc(-c3cnc([C@H]4CC[C@H](NC(=O)OC(C)C)CC4)s3)c(S(=O)(=O)C3CCOC3)c2)n[nH]1 (stereo partly drawn) [Example 115, isopropyl trans-(4-(5-(4-((5-methyl-1H-pyrazol-3-yl)amino)-2-((tetrahydrofuran-3-yl)sulfonyl)phenyl)thiazol-2-yl)cyclohexyl)carbamate] | 16 | > 25000 |
| Cc1cc(Nc2ccc(-c3cnc([C@H]4CC[C@H](NC(=O)OC(C)C)CC4)s3)c(S(=O)(=O)C3COC3)c2)n(C)n1 [Example 117, isopropyl trans-(4-(5-(4-((1,3-dimethyl-1H-pyrazol-5-yl)amino)-2-(oxetan-3-ylsulfonyl)phenyl)thiazol-2-yl)cyclohexyl)carbamate] | 7 | 20000 |
